From US20100210568A1, “T[…] HORMONE FOR […] APPLICATIONS” (priority 2007, published 2010)

Tested on: drug-resistant Mycobacterium tuberculosis
Conditions: peptide 10 micrograms per ml, seven days

Structure (SMILES): NC(=O)[C@@H]1CCCN1C(=O)[C@H](Cc1cnc[nH]1)NC(=O)[C@@H]1CCC(=O)N1 [TRH, Pyr-His-Pro-NH2]
- % inhibition: 0.0%
